According to US9434727B2, “Substituted 4-phenylpiperidines, their preparation and use” (THE TRUSTEES OF COLUMBIA UNIVERSITY IN THE CITY OF NEW YORK, priority 2014, dated 2016):
pIC50: −log10 of the molar value.

Key:
[1] = target: RBP4-TTR interaction (Homo sapiens (Human), UniProt P02753); assay: TR-FRET (HTRF) assay for retinol-induced RBP4-TTR interaction; type: biochemical; settings: in the presence of 1 μM retinol; read-out: HTRF assay for antagonists of RBP4-TTR interaction: IC50
From the text: TR-FRET assay for retinol-induced RBP4-TTR interaction Binding of a desired RBP4 antagonist displaces retinol and induces hindrance for RBP4-TTR interaction resulting in the decreased FRET signal (FIG. 7). Bacterially expressed MBP-RBP4 and untagged TTR were used in this assay. […] Following cell lysis, recombinant RBP4 was purified from the soluble fraction using the ACTA FPLC system (GE Healthcare) equipped with the 5-ml the MBP Trap HP column. Human untagged TTR was purchased from Calbiochem. Untagged TTR was labeled directly with Eu^3+ Cryptate-NHS using the HTRF Cryptate Labeling kit from CisBio following the manufacturer's recommendations. HTRF assay was performed in white low volume 384 well plates (Greiner-Bio) in a final assay volume of 16 μl per well. The reaction buffer contained 10 mM Tris-HCl pH 7.5, 1 mM DTT, 0.05% NP-40, 0.05% Prionex, 6% glycerol, and 400 mM KF. […] Titration of test compounds in this assay was conducted in the presence of 1 μM retinol. All reactions were assembled in the dark under dim red light and incubated overnight at +4° C. wrapped in aluminum foil. TR-FRET signal was measured in the SpectraMax M5e Multimode Plate Reader (Molecular Device). […] The TR-FRET signal was expressed as the ratio of fluorescence intensity: Flu665/Flu620×10,000.

[2] = target: RBP4 (Homo sapiens (Human), UniProt P02753); assay: Scintillation proximity (SPA) RBP4 binding assay; settings: 10 nM 3H-Retinol, 50 nM biotinylated RBP4
Method: Scintillation Proximity RBP4 Binding Assay
Untagged human RBP4 purified from urine of tubular proteinuria patients was purchased from Fitzgerald Industries International. It was biotinylated using the EZ-Link Sulfo-NHS-LC-Biotinylation kit from Pierce following the manufacturer's recommendations. Binding experiments were performed in 96-well plates (OptiPlate, PerkinElmer) in a final assay volume of 100 μl per well in SPA buffer (IX PBS, pH 7.4, 1 mM EDTA, 0.1% BSA, 0.5% CHAPS). The reaction mix contained 10 nM ^3H-Retinol (48.7 Ci/mmol; PerkinElmer), 0.3 mg/well Streptavidin-PVT beads, 50 nM biotinylated RBP4 and a test compound. Nonspecific binding was determined in the presence of 20 μM of unlabeled retinol. The reaction mix was assembled in the dark under dim red light. The plates were sealed with clear tape (TopSeal-A: 96-well microplate, PerkinElmer), wrapped in the aluminum foil, and allowed to equilibrate 6 hours at room temperature followed by overnight incubation at +4° C. Radiocounts were measured using a TopCount NXT counter (Packard Instrument Company).

Row | Structure (SMILES) | pIC50 [1] | pIC50 [2]
1 | O=C(c1ccccc1)N1Cc2[nH]nc(C(=O)N3CCC(c4ccc(F)c(F)c4C(F)(F)F)CC3)c2C1 [Compound 102, (5-benzoyl-1,4,5,6-tetrahydropyrrolo[3,4-c]pyrazol-3-yl)(4-(3,4-difluoro-2-(trifluoromethyl)phenyl)piperidin-1-yl)methanone] | 7.56 | 7.66
2 | O=C(c1cccnc1)N1Cc2[nH]nc(C(=O)N3CCC(c4ccc(F)c(F)c4C(F)(F)F)CC3)c2C1 [Compound 104, (4-(3,4-difluoro-2-(trifluoromethyl)phenyl)piperidin-1-yl)(5-nicotinoyl-1,4,5,6-tetrahydropyrrolo[3,4-c]pyrazol-3-yl)methanone] | 7.66 | 7.72
3 | O=C(c1n[nH]c2c1CN(C(=O)N1CCCC1)C2)N1CCC(c2ccc(F)c(F)c2C(F)(F)F)CC1 [Compound 106, (4-(3,4-difluoro-2-(trifluoromethyl)phenyl)piperidin-1-yl)(5-(pyrrolidine-1-carbonyl)-1,4,5,6-tetrahydropyrrolo[3,4-c]pyrazol-3-yl)methanone] | 7.53 | 7.69
4 | O=C(c1n[nH]c2c1CN(CC(F)(F)F)C2)N1CCC(c2ccc(F)c(F)c2C(F)(F)F)CC1 [Compound 107] | 7.11 | 7.63
5 | O=C(c1n[nH]c2c1CN(CCC(F)(F)F)C2)N1CCC(c2ccc(F)c(F)c2C(F)(F)F)CC1 [Compound 108, (4-(3,4-difluoro-2(trifluoromethyl)phenyl)piperidin-1-yl)(5-(3,3,3-trifluoropropyl)-1,4,5,6-tetrahydropyrrolo[3,4-c]pyrazol-3-yl)methanone] | 7.31 | 7.60
6 | COCCN1Cc2[nH]nc(C(=O)N3CCC(c4ccc(F)c(F)c4C(F)(F)F)CC3)c2C1 [Compound 109, (4-(3,4-difluoro-2(trifluoromethyl)phenyl)piperidin-1-yl)(5-(2-methoxyethyl)-1,4,5,6-tetrahydropyrrolo[3,4-c]pyrazol-3-yl)methanone] | 7.38 | 7.83
7 | N#CN1Cc2[nH]nc(C(=O)N3CCC(c4ccc(F)c(F)c4C(F)(F)F)CC3)c2C1 [Compound 110, 3-(4-(3,4-difluoro-2-(trifluoromethyl)phenyl)piperidine-1-carbonyl)-4,6-dihydropyrrolo[3,4-c]pyrazole-5(1H)-carbonitrile] | 7.81 | 7.81
8 | CCN1CCc2c(C(=O)N3CCC(c4ccc(F)c(F)c4C(F)(F)F)CC3)n[nH]c2C1 [Compound 111, (4-(3,4-Difluoro-2-(trifluoromethyl)phenyl)piperidin-1-yl)(6-ethyl-4,5,6,7-tetrahydro-1H-pyrazolo[3,4-c]pyridin-3-yl)methanone] | 7.66 | 8.16
9 | CNC(=O)N1CCc2[nH]nc(C(=O)N3CCC(c4cccc(F)c4C(F)(F)F)CC3)c2C1 [Compound 114, 3-(4-(3-Fluoro-2-(trifluoromethyl)phenyl)piperidine-1-carbonyl)-N-methyl-6,7-dihydro-1H-pyrazolo[4,3-c]pyridine-5(4)-carboxamide] | 7.39 | 7.99
10 | O=C(O)CN1CCc2c(C(=O)N3CCC(c4ccc(F)c(F)c4C(F)(F)F)CC3)n[nH]c2C1 [Compound 115, 2-(3-(4-(3,4-Difluoro-2-(trifluoromethyl)phenyl)piperidine-1-carbonyl)-1,4,5,7-tetrahydro-6H-pyrazolo[3,4-c]pyridin-6-yl)acetic acid] | 6.96 | 7.72
11 | COC(=O)N1CCc2c(C(=O)N3CCC(c4ccc(F)c(F)c4C(F)(F)F)CC3)n[nH]c2C1 [Compound 116, Methyl 3-(4-(3,4-difluoro-2-(trifluoromethyl)phenyl)piperidine-1-carbonyl)-1,4,5,7-tetrahydro-6H-pyrazolo[3,4-c]pyridine-6-carboxylate] | 7.63 | 7.94
12 | O=C(c1n[nH]c2c1CCN(C1COC1)C2)N1CCC(c2ccc(F)c(F)c2C(F)(F)F)CC1 [Compound 117, (4-(3,4-Difluoro-2-(trifluoromethyl)phenyl)piperidin-1-yl)(6-(oxetan-3-yl)-4,5,6,7-tetrahydro-1H-pyrazolo[3,4-c]pyridin-3-yl)methanone] | 7.42 | 8.26
13 | O=C(c1n[nH]c2c1CCN(CC1CC1)C2)N1CCC(c2ccc(F)c(F)c2C(F)(F)F)CC1 [Compound 118, (6-(Cyclopropylmethyl)-4,5,6,7-tetrahydro-1Hpyrazolo[3,4-c]pyridin-3-yl)(4-(3,4-difluoro-2-(trifluoromethyl)phenyl)piperidin-1-yl)methanone] | 7.85 | 8.03
14 | O=C(c1n[nH]c2c1CCN(CCC(F)(F)F)C2)N1CCC(c2ccc(F)c(F)c2C(F)(F)F)CC1 [Compound 119, (4-(3,4-Difluoro-2(trifluoromethyl)phenyl)piperidin-1-yl)(6-(3,3,3-trifluoropropyl)-4,5,6,7-tetrahydro-1H-pyrazolo[3,4-c]pyridin-3-yl)methanone] | 7.40 | 7.97
15 | CCC(=O)N1CCc2c(C(=O)N3CCC(c4ccc(F)c(F)c4C(F)(F)F)CC3)n[nH]c2C1 [Compound 122, 1-(3-(4-(3,4-Difluoro-2-(trifluoromethyl)phenyl)piperidine-1-carbonyl)-1,4,5,7-tetrahydro-6H-pyrazolo[3,4-c]pyridin-6-yl)propan-1-one] | 7.56 | 7.77
16 | CC(C)CC(=O)N1CCc2c(C(=O)N3CCC(c4ccc(F)c(F)c4C(F)(F)F)CC3)n[nH]c2C1 [Compound 123, 1-(3-(4-(3,4-Difluoro-2-(trifluoromethyl)phenyl)piperidine-1-carbonyl)-1,4,5,7-tetrahydro-6H-pyrazolo[3,4-c]pyridin-6-yl)-3-methylbutan-1-one] | 7.28 | 7.82
17 | CC(C)(C)CN1CCc2c(C(=O)N3CCC(c4ccc(F)c(F)c4C(F)(F)F)CC3)n[nH]c2C1 [Compound 126, (4-(3,4-Difluoro-2(trifluoromethyl)phenyl)piperidin-1-yl)(6-neopentyl-4,5,6,7-tetrahydro-1H-pyrazolo[3,4-c]pyridin-3-yl)methanone] | 6.77 | 7.77
18 | COCCN1CCc2[nH]nc(C(=O)N3CCC(c4cc(F)cc(F)c4C(F)(F)F)CC3)c2C1 [Compound 127, (4-(3,5-Difluoro-2-(trifluoromethyl)phenyl)piperidin-1-yl)(5-(2-methoxyethyl)-4,5,6,7-tetrahydro-1H-pyrazolo[4,3-c]pyridin-3-yl)methanone] | 7.77 | 7.80
19 | O=C(c1n[nH]c2c1CN(CCC(F)(F)F)CC2)N1CCC(c2cc(F)cc(F)c2C(F)(F)F)CC1 [Compound 129, (4-(3,5-Difluoro-2-(trifluoromethyl)phenyl)piperidin-1-yl)(5-(3,3,3-trifluoropropyl)-4,5,6,7-tetrahydro-1H-pyrazolo[4,3-c]pyridin-3-yl)methanone] | 7.71 | 7.86
20 | COC(=O)N1CCc2c(C(=O)N3CCC(c4cc(F)cc(F)c4C(F)(F)F)CC3)n[nH]c2C1 [Compound 130, Methyl 3-(4-(3,5-difluoro-2-(trifluoromethyl)phenyl)piperidine-1-carbonyl)-1,4,5,7-tetrahydro-6H-pyrazolo[3,4-c]pyridine-6-carboxylate] | 7.83 | 7.89
